From US4401660A, “Ester derivatives of 5-O-mycaminosyl tylonolide and method of using same” (Eli Lilly and Company, priority 1981, dated 1983)

Tests used:
[1] = test system: Pasteurella multocida; experiment: Treatment of Pasteurella infections in chicks (Table V); assay type: in vivo, one-day-old chicks; conditions: 30 mg/kg by subcutaneous injection one and four hours post challenge; for mortality at 30 mg/kg: Pasteurella multocida, sc, 4 h, read-out: Deaths in Treated Chicks/Number Treated (converted)
In short: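 One-day-old chicks challenged subcutaneously with avian P. multocida (0.1 ml of 10^-3 dilution of 20-hour tryptose broth culture). Esters given at 30 mg/kg subcutaneously at 1 and 4 hours post challenge. Untreated infected controls, ten per group.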

[2] = test system: Haemophilus influenzae Holt; experiment: MIC, standard agar-dilution assay (Table II); assay type: cell-based; set-up: unit not given here; conditions: ampicillin-sensitive strain
Procedure: (§1) The MIC's in Table II were determined by standard agar-dilution assays. The MIC's in Table III were obtained using a conventional broth-dilution microtiter test.

[3] = test system: Streptococcus Group D X66; experiment: MIC, standard agar-dilution assay (Table II); assay type: cell-based; set-up: unit not given here
Procedure: as §1

[4] = test system: Staphylococcus epidermidis EPI1; experiment: MIC, standard agar-dilution assay (Table II); assay type: cell-based; set-up: unit not given here
Procedure: as §1

[5] = test system: Staphylococcus aureus X1.1; experiment: MIC, standard agar-dilution assay (Table II); assay type: cell-based; set-up: unit not given here
Procedure: as §1

[6] = test system: Staphylococcus epidermidis EPI2; experiment: MIC, standard agar-dilution assay (Table II); assay type: cell-based; set-up: unit not given here
Procedure: as §1

[7] = test system: Streptococcus pyogenes C203; experiment: MIC, standard agar-dilution assay (Table II); assay type: cell-based; set-up: unit not given here
Procedure: as §1

[8] = test system: Streptococcus Group D 9960; experiment: MIC, standard agar-dilution assay (Table II); assay type: cell-based; set-up: unit not given here
Procedure: as §1

[9] = test system: Staphylococcus aureus S13E; experiment: MIC, standard agar-dilution assay (Table II); assay type: cell-based; set-up: unit not given here
Procedure: as §1

[10] = test system: Haemophilus influenzae R252; experiment: MIC, standard agar-dilution assay (Table II); assay type: cell-based; set-up: unit not given here; conditions: Haemophilus influenzae R252, ampicillin-resistant strain
Procedure: as §1

[11] = test system: Streptococcus pneumoniae Park I; experiment: MIC, standard agar-dilution assay (Table II); assay type: cell-based; set-up: unit not given here
Procedure: as §1

[12] = test system: Staphylococcus aureus X400; experiment: MIC, standard agar-dilution assay (Table II); assay type: cell-based; set-up: unit not given here; conditions: Staphylococcus aureus X400, methicillin-resistant strain
Procedure: as §1

[13] = test system: Staphylococcus aureus V41; experiment: MIC, standard agar-dilution assay (Table II); assay type: cell-based; set-up: unit not given here; conditions: Staphylococcus aureus V41, penicillin-resistant strain
Procedure: as §1

[14] = test system: Pasteurella multocida 68C; experiment: MIC, broth-dilution microtiter test (Table III); assay type: cell-based; set-up: unit not given here
Procedure: as §1

[15] = test system: Pasteurella haemolytica 23C; experiment: MIC, broth-dilution microtiter test (Table III); assay type: cell-based; set-up: unit not given here
Procedure: as §1

[16] = test system: Streptococcus sp. 80; experiment: MIC, broth-dilution microtiter test (Table III); assay type: cell-based; set-up: unit not given here
Procedure: as §1

[17] = test system: Mycoplasma synoviae; experiment: MIC, broth-dilution microtiter test (Table III); assay type: cell-based; set-up: unit not given here
Procedure: as §1

[18] = test system: Pasteurella haemolytica 41D; experiment: MIC, broth-dilution microtiter test (Table III); assay type: cell-based; set-up: unit not given here
Procedure: as §1

[19] = test system: Pasteurella multocida 17E; experiment: MIC, broth-dilution microtiter test (Table III); assay type: cell-based; set-up: unit not given here; conditions: bovine isolate
Procedure: as §1

[20] = test system: Pasteurella haemolytica 22C; experiment: MIC, broth-dilution microtiter test (Table III); assay type: cell-based; set-up: unit not given here
Procedure: as §1

[21] = test system: Mycoplasma hyorhinis; experiment: MIC, broth-dilution microtiter test (Table III); assay type: cell-based; set-up: unit not given here
Procedure: as §1

[22] = test system: Staphylococcus aureus; experiment: MIC, broth-dilution microtiter test (Table III); assay type: cell-based; set-up: unit not given here
Procedure: as §1

[23] = test system: Pasteurella multocida 60A; experiment: MIC, broth-dilution microtiter test (Table III); assay type: cell-based; set-up: unit not given here; conditions: avian isolate
Procedure: as §1

[24] = test system: Mycoplasma gallisepticum; experiment: MIC, broth-dilution microtiter test (Table III); assay type: cell-based; set-up: unit not given here
Procedure: as §1

[25] = test system: Pasteurella multocida 40G; experiment: MIC, broth-dilution microtiter test (Table III); assay type: cell-based; set-up: unit not given here
Procedure: as §1

[26] = test system: Pasteurella multocida 22A; experiment: MIC, broth-dilution microtiter test (Table III); assay type: cell-based; set-up: unit not given here
Procedure: as §1

SMILES | minimal inhibitory concentration (MIC) [2] | minimal inhibitory concentration (MIC) [3] | minimal inhibitory concentration (MIC) [4] | minimal inhibitory concentration (MIC) [5] | minimal inhibitory concentration (MIC) [6] | minimal inhibitory concentration (MIC) [7] | minimal inhibitory concentration (MIC) [8] | minimal inhibitory concentration (MIC) [9] | minimal inhibitory concentration (MIC) [10] | minimal inhibitory concentration (MIC) [11] | minimal inhibitory concentration (MIC) [12] | minimal inhibitory concentration (MIC) [13] | minimal inhibitory concentration (MIC) [14] | minimal inhibitory concentration (MIC) [15] | minimal inhibitory concentration (MIC) [16] | minimal inhibitory concentration (MIC) [18] | minimal inhibitory concentration (MIC) [19] | minimal inhibitory concentration (MIC) [20] | minimal inhibitory concentration (MIC) [21] | minimal inhibitory concentration (MIC) [22] | other results
CCC1OC(=O)CC(O)C(C)C(OC2OC(C)C(O)C(N(C)C)C2O)C(CC=O)CC(C)C(=O)C=CC(C)=CC1COS(=O)(=O)c1ccc(NC(C)=O)cc1 (stereo not shown) [Compound 56, 23-O-(p-Acetamidobenzenesulfonyl)-OMT] | 2 | 1 | 0.5 | 1 | 2 | 0.125 | 1 | 1 | 2 | 0.06 | 2 | 2 | 3.12 | 6.25 | 0.195 | 6.25 | 3.12 | 6.25 | 12.5 | 0.78 | mortality at 30 mg/kg [1]: 100%; minimal inhibitory concentration (MIC) [17]: 0.78; minimal inhibitory concentration (MIC) [23]: 3.12; minimal inhibitory concentration (MIC) [24]: 0.39; minimal inhibitory concentration (MIC) [25]: 6.25; minimal inhibitory concentration (MIC) [26]: 6.25
CCC1OC(=O)CC(O)C(C)C(OC2OC(C)C(O)C(N(C)C)C2OC(C)=O)C(CC=O)CC(C)C(=O)C=CC(C)=CC1COC(=O)NCc1ccccc1 (stereo not shown) [Compound 75] | 0.5 | 0.25 | 0.125 | 0.125 | 0.125 | 0.125 | 0.125 | 0.125 | 1 | 0.03 | 0.25 | 0.25 | 3.12 | 3.12 | 0.39 | 6.25 | 6.25 | 6.25 | 0.78 | 0.78 | mortality at 30 mg/kg [1]: 100%; minimal inhibitory concentration (MIC) [17]: < 0.048; minimal inhibitory concentration (MIC) [23]: 6.25; minimal inhibitory concentration (MIC) [24]: 0.048; minimal inhibitory concentration (MIC) [25]: 12.5; minimal inhibitory concentration (MIC) [26]: > 50
CCC1OC(=O)CC(O)C(C)C(OC2OC(C)C(OC(C)=O)C(N(C)C)C2OC(C)=O)C(CC=O)CC(C)C(=O)C=CC(C)=CC1COC(=O)[C@H](NC(=O)OC(C)(C)C)c1ccccc1 (stereo partly shown) [Compound 39, 2',4'-Di-O-acetyl-23-O-(N-t-BOC-phenylglycyl)-OMT] | 2 | 0.5 | 0.5 | 0.5 | 1 | 0.125 | 0.5 | 0.5 | 2 | 0.03 | 1 | 1 | 12.5 | 12.5 | 0.195 | 12.5 | 6.25 | 12.5 | 1.56 | 1.56 | mortality at 30 mg/kg [1]: 100%; minimal inhibitory concentration (MIC) [23]: 12.5; minimal inhibitory concentration (MIC) [24]: < 0.05; minimal inhibitory concentration (MIC) [25]: 6.25; minimal inhibitory concentration (MIC) [26]: 25
CCC1OC(=O)CC(O)C(C)C(OC2OC(C)C(OC(C)=O)C(N(C)C)C2OC(C)=O)C(CC=O)CC(C)C(=O)C=CC(C)=CC1COC(=O)COc1ccccc1 (stereo not shown) [Compound 34, 2',4'-Di-O-acetyl-23-O-phenoxyacetyl-OMT] | 1 | 0.25 | 0.25 | 0.25 | 0.5 | 0.06 | 0.25 | 0.25 | 1 | 0.015 | 0.25 | 0.25 | 1.56 | 3.12 | < 0.05 | 3.12 | 1.56 | 3.12 | 3.12 | 0.097 | mortality at 30 mg/kg [1]: 90%; minimal inhibitory concentration (MIC) [23]: 1.56; minimal inhibitory concentration (MIC) [24]: < 0.05; minimal inhibitory concentration (MIC) [25]: 1.56; minimal inhibitory concentration (MIC) [26]: 3.12
CCC1OC(=O)CC(O)C(C)C(OC2OC(C)C(O)C(N(C)C)C2OC(C)=O)C(CC=O)CC(C)C(=O)C=CC(C)=CC1COC(=O)CCc1ccccc1 (stereo not shown) [Compound 30] | 0.5 | 0.125 | 0.25 | 0.125 | 0.25 | 0.06 | 0.125 | 0.25 | 0.5 | 0.015 | 0.25 | 0.25 | 0.78 | 3.12 | < 0.05 | 3.12 | 1.56 | 3.12 | 0.195 | 0.195 | Deaths in Treated Chicks/Number Treated [1]: 6/10; minimal inhibitory concentration (MIC) [23]: 1.56; minimal inhibitory concentration (MIC) [24]: < 0.05; minimal inhibitory concentration (MIC) [25]: 0.78; minimal inhibitory concentration (MIC) [26]: 1.56
